From patent US8771983B2, “Method and kit for expressing protein under regulation of the expression from repeated sequence formed by gene amplification, and transformant” (National University of Corporation Hiroshima University, priority 2004, dated 2014)

Legend:
[1] = system: expression of d2EGFP in human colon cancer cell COLO 320DM cells; assay: Level of expression of d2EGFP by cell sorter after selection with stepwise increasing Blasticidin concentrations (Example 3); format: cell-based; conditions: 1 μg/ml Doxycycline
Description: (§1) Fluorescence intensity of these cells were measured by using a cell sorter. The measurement was carried out by sorting 20,000 cells by setting living cells at a gate. The cell sorter used was made by Becton Dickinson, and operated under conditions as described in the manual attached thereto.
(§2) In this method for detecting the fluorescence intensity, detection limit was 1, and all fluorescence intensities of 1 or less would be detected as 1. In view of this, a product of a ratio (cell %) of cells of fluorescence intensities of 2 or more in all living cells (10,000 cells) and an average of the fluorescence intensities of the cells having fluorescence intensities of 2 or more was calculated out for each experimental plot. This product is referred to as “accumulated fluorescence intensity” hereinafter and in later Examples and shown in boxed letter in the figures.
A plasmid (pSFVdhfr/d2EGFP) was transfected into human colon cancer cell COLO 320DM cells by lipofection. The plasmid (pSFVdhfr/d2EGFP) was a plasmid having (a) IR and MAR derived from human DHFR gene locus, (b) Blasticidin tolerance gene, and (c) d2EGFP gene that was under control of TRE-promoter (Tetracycline inducing promoter). The transformed cells were selected with 5 μg/ml of Blasticidin (Funakoshi Corp.) thereby obtaining many transformed clones. After the clones were mixed, the culturing was continued. […] Cells select with the respective Blasticidin concentrations were treated with 1 μg/ml of Doxycycline (Clontech Laboratories Inc.) added to the media so as to activate TRE-promoter and thereby inducing expression of d2EGFP (whose half-life is much shorter than general EGFP.

[2] = system: expression of d2EGFP in Tet-ON cells (COLO 320DM) transfected with pSFVdhfr/d2EGFP; assay: Level of expression of d2EGFP by cell sorter in HSR and DM clones of Tet-ON cells with 5-aza (Example 7); format: cell-based, human; conditions: polyclonal population of Tet-ON cells with pSFVdhfr/d2EGFP; 5 μg/ml of Doxycycline
Description: as §1, §2
By lipofection, the pTet-ON plasmid (Clontech Laboratories Inc.) having Tet-ON gene encoding a transcription activating factor (Tet-ON protein) for promoting TRE-promoter was transfected into human colon cancer COLO 320DM. Transformed cells (hereinafter referred to as “Tet-ON cells”) which stably expressed Tet-ON protein, were selected with Hygromycin.
Next, the pSFVdhfr/d2EGFP plasmid was transfected into the Tet-ON cells by lipofection. The cells thus obtained were selected with 5 μg/ml of Blasticidin for approximately 3 weeks, thereby obtaining a polyclonal population of the stable transformed cells.
The expression of d2EGFP was induced in the polyclonal population by activating TRE-promoter by adding 5 μg/ml of Doxycycline (Clontech Laboratories Inc.) in the medium. FIG. 9 illustrates a result of analysis of the level of the expression of d2EGFP in this case by using a cell sorter. In FIG. 9, the value in parenthesis is an average of fluorescence intensities (i.e., average fluorescence intensity), and boxed value is an accumulated fluorescence intensity. Based on the result of FIG. 9, it was confirmed that the polyclonal population was a population for expressing d2EGFP (average fluorescence intensity: 6.25, accumulated fluorescence intensity: 536).
From the polyclonal population, given 30 clones were obtained by a limiting dilution method that was carried out by inoculating a clone to 6 well plates with such a low cell concentration of 30 cells/ml, and incubating the plates for 10 days to 2 weeks thereby obtaining colonies thereon.
From among the clones, 4 clones having high levels of expression of d2EGFP (Clone 4, Clone 5, Clone 6, and Clone 9) were selected by fluorescence microscopic observation. Mitotic chromosome samples of the 4 clones were prepared. By FISH method, detection for a base sequence derived from the transfected pSFVdhfr/d2EGFP plasmid was carried out. The preparation of mitotic chromosome samples and the FISH method were carried out as described in Shimizu, N., Kanda, T., and Wahl, G. M. Selective capture of acentric fragments by micronuclei provides a rapid method of purifying extrachromosomally amplified DNA. Nature Genet., 12: 65-71, 1996.
For 4 clones, induction with Doxycycline (Clontech Laboratories Inc.; 1 μg/ml) was carried out and 5-aza (0 μM, 1 μM or 3 μM) was added in the medium. After 1 week culturing, the level of expression of d2EGFP in each clone was analyzed by using a cell sorter.

[3] = system: expression of d2EGFP in human colon cancer COLO 320DM cells; assay: Change over time of d2EGFP expression after induction with Doxycycline in cells cotransfected with pSFVdhfr/d2EGFP and pTet-ON plasmid (Example 8); format: cell-based; conditions: polyclonal population
Description: as §1, §2
An equimolar mixture of a plasmid (pSFVdhfr/d2EGFP) and pTet-ON plasmid (Clontech Laboratories Inc.) was simultaneously transfected into human colon cancer COLO 320DM cells. The plasmid (pSFVdhfr/d2EGFP) was a plasmid having (a) IR and MAR derived from human DHFR gene locus, (b) Blasticidin tolerance gene, and (c) d2EGFP gene that was under control of TRE-promoter (Tetracycline inducing promoter). Meanwhile, the pTet-ON plasmid was a plasmid having Tet-ON gene encoding the transcription activating factor (Tet-ON protein) of TRE-promoter. The cells were selected with 5 μg/ml of Blasticidin thereby obtaining a polyclonal population of transformed cells. TRE-promoter was activated by adding 1 μg/ml of Doxycycline (Clontech Laboratories Inc.) in the medium of a cell culturing solution of the polyclonal population, thereby inducing the expression of d2EGFP.
Next, after the expression of d2EGFP was induced by Doxycycline, the level of the expression of d2EGFP was analyzed by using a cell sorter so as to find a change in the level of the expression of d2EGFP over time. […] In FIG. 16, the value in parenthesis is an average of fluorescence intensities (i.e., average fluorescence intensity), and boxed value is an accumulated fluorescence intensity.
FIG. 17 illustrates a graph plotting the averages (i.e., average fluorescence intensities: indicated by filled circles in FIG. 17) and living cell ratio (a ratio of living cells over total cell number: indicated by open circles) of the level of the expression of d2EGFP against time. […] The level was maintained high even after two weeks lapsed (labeled as “2wk” in FIG. 17).

[4] = system: expression of d2EGFP in human colon cancer cells COLO 320DM cells; assay: Level of expression of d2EGFP after treatment of cells with 5-aza-2′-deoxycytidine and/or Trichostatin A (Example 6); format: cell-based
Description: as §1, §2
A mixture of a plasmid (pSFVdhfr/d2EGFP) and the plasmid DNA having the Aves-derived HS4 insulator sequence was transfected to human colon cancer cells COLO 320DM cells by lipofection. The plasmid (pSFVdhfr/d2EGFP) was a plasmid having (a) IR and MAR derived from human DHFR gene locus, (b) Blasticidin tolerance gene, and (c) d2EGFP gene that was under control of TRE-promoter (Tetracycline inducing promoter). The plasmid DNA having the Aves-derived HS4 insulator sequence was identical with the one described in Example 2. From 2 days later since the gene transfection, the cells were selected with 5 μg/ml of Blasticidin (Funakoshi Corp.). After 3 to 4 weeks, many colonies of transformed cells were obtained.
Into a culture solution of the transformed cells, of 1 μM or 3 μM of 5-aza-2′ deoxycytidine (hereinafter referred to as “5-aza” where appropriate; Sigma) was added. Thereby, the cells were treated with 5-aza for 3 days. For comparison purposes, 20 nM of Trichostatin A (hereinafter referred to as “TSA” where appropriate; histone deacetylation inhibitor, Sigma), which is known as a material for increasing gene expression from the repeated sequence, was added to some culture solutions of the transformed cells and analyzed.

[5] = pSFVdhfr/d2EGFP cells selected with 5 μg/ml of Blasticidin
[6] = pSFVdhfr/d2EGFP cells selected with 40 μg/ml of Blasticidin
[7] = pSFVdhfr/d2EGFP cells selected with 160 μg/ml of Blasticidin
[8] = pSFVdhfr/d2EGFP cells selected with 320 μg/ml of Blasticidin
[9] = fifteen hours after the addition of Doxycycline (1 μg/ml)
[10] = forty eight hours (2 days) after the addition of Doxycycline (1 μg/ml)
[11] = one hour after the addition of Doxycycline (1 μg/ml)
[12] = one hundred twenty hours (5 days) after the addition of Doxycycline (1 μg/ml)
[13] = six hours after the addition of Doxycycline (1 μg/ml)
[14] = three hours after the addition of Doxycycline (1 μg/ml)
[15] = twenty four hours after the addition of Doxycycline (1 μg/ml)
[16] = two weeks after the addition of Doxycycline (1 μg/ml)

Work on CN(CC[C@H](N)CC(=O)N[C@H]1C=C[C@H](n2ccc(N)nc2=O)O[C@@H]1C(=O)O)C(=N)N [Blasticidin] yielded an average fluorescence intensity ([1]; pSFVdhfr/d2EGFP cells selected with 10 ng/ml of Blasticidin) of 3.77, an accumulated fluorescence intensity [1, 5] of 222 and an average fluorescence intensity [1, 5] of 2.94. The accumulated fluorescence intensity [1, 6] was 640, the average fluorescence intensity [1, 6] was 6.67 and the accumulated fluorescence intensity [1, 7] was 929. For the same compound, the average fluorescence intensity [1, 7] was 9.47, the accumulated fluorescence intensity [1, 8] was 1850 and the average fluorescence intensity [1, 8] was 18.55.
Compound C[C@H]1c2cccc(O)c2C(=O)C2=C(O)[C@]3(O)C(=O)C(C(N)=O)=C(O)[C@@H](N(C)C)[C@@H]3[C@@H](O)[C@@H]21 [Doxycycline] has an accumulated fluorescence intensity [2] of 536, an average fluorescence intensity [2] of 6.25 and an accumulated fluorescence intensity [3, 9] of 841. For the same compound, the average fluorescence intensity [3, 9] was 9.24, the accumulated fluorescence intensity [3, 10] was 5320 and the average fluorescence intensity [3, 10] was 53.97. It also gave an accumulated fluorescence intensity [3, 11] of 216, an average fluorescence intensity [3, 11] of 2.99 and an accumulated fluorescence intensity [3, 12] of 3880. For the same compound, the average fluorescence intensity [3, 12] was 39.56, the “survival ratio of the cells (living cell ratio)” value ([3]; expression of d2EGFP induced by Doxycycline, up to two weeks) was “no decrease in the survival ratio” and the accumulated fluorescence intensity [3, 13] was 341. For the same compound, the average fluorescence intensity [3, 13] was 4.22, the accumulated fluorescence intensity [3, 14] was 293 and the average fluorescence intensity [3, 14] was 3.72. The accumulated fluorescence intensity [3, 15] was 2800, the average fluorescence intensity [3, 15] was 28.77 and the accumulated fluorescence intensity [3, 16] was 3500. It also gave an average fluorescence intensity [3, 16] of 35.32.
CC(/C=C/C(=O)NO)=C\[C@@H](C)C(=O)c1ccc(N(C)C)cc1 [TSA, Trichostatin A] was tested, and the accumulated fluorescence intensity ([4]; 20 nM of TSA) was 228, the average fluorescence intensity ([4]; 20 nM of TSA) was 3.02 and the “effect on the expression of the target protein” value ([4]; 20 nM of TSA versus cells before treatment) was “cannot increase the expression of the target protein”.
